Test results published in paper PMC6963856, “Increases in Hydrophilicity and Charge on the Polar Face of Alyteserin 1c Helix Change its Selectivity towards Gram-Positive Bacteria” (Antibiotics, 2019).
Where no end group is shown, it is not given here.

How the values were obtained:
S. aureus ATCC25923 = type: cell-based, Staphylococcus aureus
Description: (§1) Antimicrobial assays were performed according to the Clinical and Laboratory Standards Institute, CLSI [45] with slight modifications. A bacterial culture in Mueller Hinton broth in exponential phase was diluted in Mueller Hinton broth until reaching an OD625 of 0.1 (approximately 1 × 10^8 CFU/mL). Then, this culture was diluted once more by a factor of 1:200. Subsequently, 90 µL of bacterial culture was incubated with 10 µL of peptide to reach a final inoculum of approximately 5 × 10^5 CFU/mL. The incubation time was 18–20 h in sterile 96-well plates at 37 °C. The peptides were applied at different serial dilutions (diluted in half) from 250 μM to 0.97 μM. As a negative control, phosphate-buffered saline (PBS; 138 mM NaCl, 3 mM KCl, 1.5 mM NaH2PO4, 8.1 mM Na2HPO4, pH 7.4) was used. After incubation, bacterial growth was visualized to obtain the minimum inhibitory concentration (MIC).

[1] = tested on: S. aureus ATCC43300 (MRSA); type: cell-based, Staphylococcus aureus
Description: as §1

[2] = tested on: S. aureus ATCC29213 (MSSA, ampicillin-resistant); type: cell-based, Staphylococcus aureus
Description: as §1

[3] = tested on: L. monocytogenes ATCCbaa751; type: cell-based
Description: as §1

B. cereus ATCC11778 = type: cell-based
Description: as §1

S. typhimurium ATCC14028 = type: cell-based
Description: as §1

E. coli ATCC25922 = type: cell-based, Escherichia coli
Description: as §1

P. aeruginosa ATCC9027 = type: cell-based
Description: as §1

human erythrocytes = conditions: cited from earlier work
Description: A peptide of 23 amino acid residues with a net charge of +2, Alyerserin-1c (WT), was isolated for the first time from the cutaneous secretions of the Alytes obstetricans toad. […] Furthermore, the three-dimensional structure of Alyteserin-1c was characterized as an extended α-helix between Leu2 and Val21 residues. In a recent study by Aragón-Muriel et al., it was reported that the Alyteserin-1 ...

Row | Substance | MIC S. aureus ATCC25923 (S. aureus ATCC25923) [µM] | MIC S. aureus ATCC43300 [1] [µM] | MIC S. aureus ATCC29213 [2] [µM] | MIC L. monocytogenes ATCCbaa751 [3] [µM] | MIC B. cereus ATCC11778 (B. cereus ATCC11778) [µM] | MIC S. typhimurium ATCC14028 (S. typhimurium ATCC14028) [µM] | MIC E. coli ATCC25922 (E. coli ATCC25922) [µM] | MIC P. aeruginosa ATCC9027 (P. aeruginosa ATCC9027) [µM] | HC50 human erythrocytes (human erythrocytes) [µM]
1 | GLKRIFKSGLGKLVKGISAHVAS-NH2 [ΔM] | 62.5 | 250 | 250 | 62.5 | 125 | 125 | 62.5 |  | 
2 | GLKEIFKAGLGSLVKGIAAHVAS-NH2 [WT, Alyteserin-1c, reference compound] | 250 |  |  | 125 |  |  | 15.2 | 31.3 | 220
